From PubChem BioAssay (NCI) come the findings set out here.

Where “and” joins values, the source holds several entries; their conditions need not be identical. Equal entries are not always repeated.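 Exposure lasted 48 hours, with cells grown in 96-well plates and compounds tested at five concentrations. GI50: concentration for 50% inhibition of growth. Definition used: TGI = concentration required for complete inhibition of growth.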

Test systems include CAKI-1 renal; DU-145 prostate; HCT-116 colon; HT29 colon; KM12 colon; NCI-H522 lung; PC-3 prostate; U251 CNS.
What all share (assay): NCI tumour cell line growth inhibition, 48 h

As to `Cc1ccc(-c2nc(/C=N/Nc3cc(C)nc4ccc(Br)cc34)c(C)o2)cc1`, the GI50 in the assay on CAKI-1 renal was 1.73 µM; in the assay on DU-145 prostate it was 1.8 µM; in the assay on HCT-116 colon it was 1.85 µM; in the assay with HT29 colon it was 1.92 µM; in the assay on KM12 colon, 1.89 µM; in the assay with NCI-H522 lung, 1.94 µM. For the same molecule, the figures for the GI50 in the assay with PC-3 prostate and in the assay on U251 CNS were 1.71 µM and 1.84 µM, respectively. The TGI with CAKI-1 renal came out at 3.12 µM; in the assay on DU-145 prostate, 3.36 µM; in the assay on HCT-116 colon, 3.46 µM; with HT29 colon, 3.82 µM; in the assay on KM12 colon it was 3.6 µM; in the assay with NCI-H522 lung, 4.13 µM. Also, the TGI turned out to be 3.3 µM in the assay with PC-3 prostate and 3.45 µM in the assay with U251 CNS.
Regarding `COc1c(C)c(OC)c(C(=O)CC(C)C)c(OC)c1C`, the TGI with CAKI-1 renal, in the assay with DU-145 prostate, in the assay on HCT-116 colon, with HT29 colon, in the assay with KM12 colon and in the assay with NCI-H522 lung was greater than 100 µM each time. For the same molecule, the TGI in the assay on PC-3 prostate and in the assay with U251 CNS was greater than 100 µM in each case.
On to `CCc1cccc(NC(=O)Nc2ccc(Oc3ccc4nc(NC(=O)OC)[nH]c4c3)cc2)c1`, for which the GI50 is greater than 15.4 µM with CAKI-1 renal; 4.94 µM in the assay on DU-145 prostate; 3.39 µM in the assay on HCT-116 colon; 2.04 µM in the assay on HT29 colon; 0.0985 µM with KM12 colon; 0.921 µM in the assay with NCI-H522 lung. Also, the figures for the GI50 with PC-3 prostate and in the assay on U251 CNS were 4.9 µM and 4.85 µM, respectively. For the same molecule, the TGI is greater than 25 µM in the assay with CAKI-1 renal; greater than 15.4 µM in the assay on DU-145 prostate; greater than 14.9 µM with HCT-116 colon; greater than 13.4 µM in the assay on HT29 colon; 4.94 µM in the assay on KM12 colon; 14.8 µM in the assay on NCI-H522 lung. The TGI with PC-3 prostate is 19.6 µM; with U251 CNS, greater than 15.4 µM.
With `O=C(Nc1cn[nH]c1-c1nc2ccc(CN3CCOCC3)cc2[nH]1)NC1CC1`, the TGI in the assay with CAKI-1 renal was 15.2 µM and > 10 µM; in the assay on DU-145 prostate, 14.7 µM and > 10 µM; with HCT-116 colon, 10.8 µM and > 10 µM; with HT29 colon, 4.71 µM and > 10 µM; in the assay with KM12 colon, 4.06 µM and > 10 µM; in the assay on NCI-H522 lung it was 3.43 µM and > 10 µM. In addition, the TGI in the assay with PC-3 prostate is 36.2 µM and > 10 µM; in the assay on U251 CNS it was 11.2 µM and > 10 µM. The GI50 is 2.6 µM and > 10 µM in the assay with DU-145 prostate; 0.208 µM and 0.473 µM in the assay on HCT-116 colon; 0.272 µM and 2.22 µM in the assay on HT29 colon; 0.634 µM and 1.72 µM in the assay with KM12 colon; 0.563 µM and 1.18 µM in the assay on NCI-H522 lung; 0.957 µM and 4.29 µM in the assay with PC-3 prostate. Moreover, in the assay with U251 CNS, the GI50 was 0.274 µM and 1.3 µM.
For `O=c1oc2ccc(Cl)cc2c(=O)n1-c1ccc(F)cc1F`, the GI50 is 1.45 µM with CAKI-1 renal; 3.75 µM in the assay on DU-145 prostate; 2.53 µM in the assay with HCT-116 colon; 3.52 µM with HT29 colon; 2.72 µM with KM12 colon; 1.4 µM in the assay with NCI-H522 lung. Further, the GI50 in the assay on PC-3 prostate was 1.07 µM; in the assay on U251 CNS, 1.87 µM. The TGI is 5.6 µM in the assay with CAKI-1 renal; 46.6 µM in the assay with DU-145 prostate; 10.4 µM in the assay with HCT-116 colon; 38.8 µM in the assay with HT29 colon; 10.2 µM with KM12 colon; 10.3 µM in the assay with NCI-H522 lung. Further, the TGI in the assay with PC-3 prostate was found to be 4.03 µM; in the assay on U251 CNS it was 36.7 µM.
`CC[C@]12C=CCN3CC[C@@]4(c5ccc(OC)cc5N(C)[C@H]4[C@@](O)(C(=O)OC)[C@@H]1OC(=O)CCC(=O)O[C@H]1CC[C@H]4[C@@H]5CC[C@H]6CC(=O)CC[C@]6(C)[C@H]5CC[C@]14C)[C@@H]32`: the GI50 in the assay with DU-145 prostate was 3.66 µM; in the assay on HCT-116 colon, 1.02 µM; in the assay on HT29 colon it was 2.13 µM; in the assay with KM12 colon, 3.16 µM; with NCI-H522 lung it was 2.85 µM; in the assay with PC-3 prostate, 0.703 µM. Also, the GI50 with U251 CNS is 3.74 µM. In addition, the TGI in the assay on DU-145 prostate was 61.2 µM; with HCT-116 colon it was 10.1 µM; in the assay on HT29 colon, 6.06 µM; with KM12 colon, greater than 100 µM; in the assay with NCI-H522 lung it was 27 µM; with PC-3 prostate, greater than 100 µM. In addition, the TGI with U251 CNS is 22.8 µM.
As to `Cc1nc2ccccc2c(/C=C/c2ccccc2)c1C(=O)/C=C/c1ccc(C(F)(F)F)cc1`, the GI50 in the assay on CAKI-1 renal is 1.14 µM; in the assay with HCT-116 colon it was 0.226 µM; in the assay with HT29 colon, 0.632 µM; in the assay with NCI-H522 lung, 1.6 µM; with PC-3 prostate, 1.55 µM; with U251 CNS it was 1.4 µM. The TGI with CAKI-1 renal was 2.44 µM; in the assay with HCT-116 colon, 1.16 µM; with HT29 colon it was 4.46 µM; in the assay on NCI-H522 lung it was 6.32 µM; in the assay on PC-3 prostate it was 5.02 µM; in the assay on U251 CNS it was 2.95 µM.
For the molecule `COc1ccc2nc3c(cc2c1)C(=O)CC(c1ccccc1)C3` (stereo not drawn), the GI50 with CAKI-1 renal is 0.552 µM; in the assay with DU-145 prostate it was 0.595 µM; with HCT-116 colon, 0.383 µM; in the assay with HT29 colon, 0.439 µM; in the assay with KM12 colon, 0.469 µM; in the assay on NCI-H522 lung it was 0.401 µM. Also, the GI50 was 0.901 µM in the assay on PC-3 prostate and 5.81 µM in the assay on U251 CNS. For the same molecule, the TGI is greater than 100 µM in the assay on CAKI-1 renal; greater than 58.1 µM with DU-145 prostate; greater than 100 µM in the assay on HCT-116 colon; greater than 100 µM in the assay with HT29 colon; greater than 100 µM in the assay on KM12 colon; greater than 67.4 µM with NCI-H522 lung. In addition, the TGI in the assay on PC-3 prostate and in the assay on U251 CNS was greater than 100 µM in each case.
For `Cc1ccc2[nH]c(O)c(N=Nc3ccccc3[N+](=O)[O-])c2c1`, the TGI was greater than 100 µM with CAKI-1 renal; greater than 100 µM with DU-145 prostate; 12.2 µM in the assay with HCT-116 colon; greater than 100 µM in the assay on HT29 colon; greater than 40.3 µM in the assay with KM12 colon; 5.29 µM in the assay on NCI-H522 lung. The TGI is greater than 100 µM with PC-3 prostate and 18.6 µM in the assay on U251 CNS.
For the molecule `COc1ccc2c(c1)C(=O)c1c-2c(N2CCN(C(=O)CCNCCNCCN)CC2)nc2ccccc12`, the GI50 in the assay with CAKI-1 renal is 18.8 µM; in the assay on HCT-116 colon, 1.85 µM; in the assay with HT29 colon it was 2.43 µM; in the assay on KM12 colon it was 4.94 µM; in the assay with NCI-H522 lung, 11.2 µM; in the assay with PC-3 prostate, 10.3 µM. Besides, the TGI with CAKI-1 renal is 47.8 µM; in the assay with HCT-116 colon it was 3.7 µM; in the assay on HT29 colon, 4.88 µM; in the assay with KM12 colon it was 62.2 µM; in the assay with NCI-H522 lung, 41.1 µM; in the assay with PC-3 prostate it was 25.9 µM.
